# Results as given in patent US9115363B2, “Gene expression and eradication system in Helicobacter pylori” (priority 2011, dated 2015).
# Where “and” joins values, the source holds several entries; their conditions need not be identical. Equal entries are not always repeated.
# Tests used:
# H. pylori = experiment: Minimal inhibitory concentration of ATc in liquid culture; assay type: cell-based; conditions: MIC as measured in liquid culture; maximal induction at 100 ng/mL
# [1] = test system: GFP expression in strains expressing TetR or revTetR; experiment: GFP fluorescence on blood agar plates with ATc; assay type: cell-based, H. pylori; conditions: 50 ng/mL ATc in blood agar plates
# Protocol: Bacteria were plated onto fresh CBA plates with or without 50 ng/mL ATc and visualized after 24 hr incubation. For Tet-OFF strains, ptetR(2,4,6) bacteria were passaged twice on CBA plates containing ATc prior to the experiments, to allow strains enough time to repress GFP expression.
# [2] = test system: TetR-controlled GFP expression; experiment: Kinetics of uPtetO1-GFP induction by immunoblotting; assay type: cell-based, H. pylori
# Protocol: (§1) Immunoassays—SDS-PAGE and Western Blot Analysis
# Whole cell lysates of bacteria growing on either chloramphenicol or streptomycin plates was resuspended in phosphate-buffered saline (PBS) buffer. Cells were pelleted and resuspended in lysis buffer (50 mM Tris-HCl, 250 mM NaCl, 1% triton X-100) and incubated on ice for 15 min. Samples were then sonicated for 10 sec. Insoluble cell debris was removed by centrifugation at 13,000 rpm form 10 min at 4° C. Cell lysates were mixed with sodium dodecyl sulfate (SDS) sample buffer and incubated at 95° C. for 10 min. The proteins were separated by 10% SDS-polyacrylamide gel electrophoresis (PAGE) and electrotransferred to a pvdf (0.22 μm Immobulon, Millipore) membrane at 4° C. with a constant voltage of 90 V in transfer buffer (192 mM glycine, 25 mM Tris, 20% [vol/vol] methanol) for 2 hours. The membrane was blocked by using 2% BSA (Sigma) in PBST (150 mM NaCl, 10 mM Tris-C1, pH 7.0, 0.1% [vol/vol] Tween 20) and then incubated with the appropriate primary antibody, washed and then incubated with a secondary antibody containing a horseradish peroxidise (HRP) conjugate. The membrane was washed again and detection of secondary HRP conjugate was accomplished by chemiluminescence (Sigma). […] Chemiluminescence was detected using LAS 3000 (Fujifilm)(software Image reader LAS 3000 V2.2)
# revTetR = revTetR (Escherichia coli, UniProt P0ACT4); conditions: cited from earlier work
# Chain of revTetR (P0ACT4 with tags, fused parts or gaps E15A/L17G/T20V/D23E/L25V/I36V): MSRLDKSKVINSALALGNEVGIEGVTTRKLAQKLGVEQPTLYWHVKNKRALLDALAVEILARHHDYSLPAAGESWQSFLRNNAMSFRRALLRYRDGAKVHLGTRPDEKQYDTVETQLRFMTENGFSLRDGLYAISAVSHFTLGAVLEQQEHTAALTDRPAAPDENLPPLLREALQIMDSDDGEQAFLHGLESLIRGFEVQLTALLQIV
# urease activity = experiment: Urease disc diffusion assay; assay type: cell-based, H. pylori; conditions: plate inoculated with untreated bacteria
# Protocol: Bacteria were plated onto urease plates, and blank discs were placed onto the inoculated plate. 10 μL of ATc was placed onto each disc and plates were incubated under microaerophilic conditions and examined for colour change every […].
# ptetR2 and uPtetO1-GFP = experiment: GFP disc diffusion assay; assay type: cell-based, H. pylori; conditions: bacterial lawns containing ptetR2 and uPtetO1-GFP; after 24 hours of incubation
# [3] = test system: urePtetO promoters (UreB subunit); experiment: Immunoblotting of UreB in urePtetO strains; assay type: cell-based, H. pylori
# Protocol: as §1
# Whole cell lysates of bacteria growing on either chloramphenicol or streptomycin plates was resuspended in phosphate-buffered saline (PBS) buffer. Cells were pelleted and resuspended in lysis buffer (50 mM Tris-HCl, 250 mM NaCl, 1% triton X-100) and incubated on ice for 15 min. Samples were then sonicated for 10 sec. Insoluble cell debris was removed by centrifugation at 13,000 rpm form 10 min at 4° C. Cell lysates were mixed with sodium dodecyl sulfate (SDS) sample buffer and incubated at 95° C. for 10 min. The proteins were separated by 10% SDS-polyacrylamide gel electrophoresis (PAGE) and electrotransferred to a pvdf (0.22 μm Immobulon, Millipore) membrane at 4° C. with a constant voltage of 90 V in transfer buffer (192 mM glycine, 25 mM Tris, 20% [vol/vol] methanol) for 2 hours. The membrane was blocked by using 2% BSA (Sigma) in PBST (150 mM NaCl, 10 mM Tris-C1, pH 7.0, 0.1% [vol/vol] Tween 20) and then incubated with the appropriate primary antibody, washed and then incubated with a secondary antibody containing a horseradish peroxidise (HRP) conjugate. The membrane was washed again and detection of secondary HRP conjugate was accomplished by chemiluminescence (Sigma). For detection of TetR and revTetR, rabbit polyclonal IgG anti TetR (MoBiTec) at a dilution of 1:2000 was used as the primary. For detection of UreB subunit, mouse monoclonal IgG anti UreB (Austral Biologicals) was used at a dilution of 1:8000. For detection of GFP, rabbit polyclonal anti GFP (Ondek) was used at a dilution of 1:2000. Secondary antibodies, mouse anti-rabbit-HRP and rabbit anti-mouse-HRP (Jackson ImmunoResearch Laboratories) were used at a dilution of 1:10,000. Chemiluminescence was detected using LAS 3000 (Fujifilm)(software Image reader LAS 3000 V2.2)
# [4] = test system: uPtetO-cre in X47 mdaB:: ptetR2; experiment: Immunoblotting of conditional cre expression; assay type: cell-based, H. pylori; conditions: 50 ng/ml ATc, liquid culture, trpA:: uPtetO-cre, both strains
# From the text: In order to conditionally express the Cre recombinase in H. pylori two Tet responsive promoters uPtetO1 and uPtetO2 were selected to control the cre expression. They consist of the core urease promoter containing a C to T mutation in the −10 box and one tetO site just downstream of the transcriptional start point. uPtetO2 contains a second tetO site between the −35 and −10 box. A synthetic H. pylori codon usage optimized version of the cre gene was amplified and cloned into the plasmid pTrpA-uPtetO1-GFP and pTrpA-uPtetO2-GFP to replace GFP. Natural transformation of the recipient strain H. pylori X47 mdaB:: ptetR2; trpA:: rpsL-CAT with these plasmids (pTrpA-uPtetO(1/2)-Cre) allowed integration of uPtetO-cre fusions in the chromosome at the trpA locus by homologous recombination. The conditional expression of cre in the constructed strains X47 mdaB:: ptetR2; trpA:: uPtetO-cre was analyzed by immunoblotting. Bacteria were grown in liquid culture the presence of none or 50 ng/ml ATc, respectively.
# Immunoassay—SDS-PAGE and Western Blot Analysis.
# Bacteria were grown for 24 hours on selective plates or in selective liquid media. Cells were harvested and resuspended in phosphate-buffered saline (PBS) buffer. […] Chemiluminescence was detected using LAS 3000 (Fujifilm)(software Image reader LAS 3000 V2.2)
# [5] = test system: TetR-controlled GFP expression (uPtetO-GFP); experiment: GFP reporter assay, liquid culture (BHI), induction by ATc; assay type: cell-based, H. pylori; conditions: for induction of GFP expression: 100 ng/mL ATc, BHI media
# Protocol: 5 mL cultures were grown for 14 h and then induced with 200 ng/mL ATc unless otherwise stated. Bacteria were harvested by centrifugation, washed twice with PBS and resuspended to a density of 20D600. Then, 0.1 ml of the bacterial suspension was transferred into black 96-well plates, and fluorescence at 520 nm after excitation at 485 nm was measured in using the POLARstar Omega platereader.
# [6] = test system: urePtetO induction of Tet-ON strains; experiment: Urease plate assay; assay type: cell-based, H. pylori; conditions: for ATc concentration at which significant urease activity is detected: after 24 h
# [7] = test system: B128 pHel2-IEC-Ts-FliCsyn transconjugants; experiment: Immunoblotting of conditional fliCsyn expression; assay type: cell-based, H. pylori; conditions: selective blood agar plates with 50 ng/ml ATc; all tested clones
# Protocol: The conditional expression of fliCsyn and expression of TetRs in the transconjugants B128 pHel2-IEC-Ts-FliCsyn was analyzed by immunobloting.
# Bacteria were grown for 24 hours on selective plates or in selective liquid media. Cells were harvested and resuspended in phosphate-buffered saline (PBS) buffer. Samples were then sonicated for 10 seconds, mixed with sodium dodecyl sulfate (SDS) sample buffer and incubated at 37° C. for 15 min. Insoluble cell debris was removed by centrifugation at 13,000 rpm for 1 min. The proteins were separated by 10% SDS-polyacrylamide gel electrophoresis (PAGE) and electro-transferred to a PVDF membrane (Immobilon-P Transfer (0.45 μm, Millipore) with a constant voltage of 100 V in transfer buffer (192 mM glycine, 25 mM Tris, 20% [vol/vol] methanol) for 1 hour. The membranes were blocked with 3% BSA (Sigma) in PBST (150 mM NaCl, 10 mM Tris-C1, pH 7.0, 0.1% [vol/vol] Tween 20) and then incubated with the appropriate primary antibody, washed and then incubated with a secondary antibody containing a horseradish peroxidise (HRP) conjugate. The membrane was washed again and detection of secondary HRP conjugate was accomplished by chemiluminescence (Sigma). For detection of Cre recombinase, rabbit polyclonal IgG anti Cre (abcam) was used at a dilution of 1:1000. […] Chemiluminescence was detected using LAS 3000 (Fujifilm)(software Image reader LAS 3000 V2.2)
# TetR = TetR (Escherichia coli, UniProt P0ACT4, D23E/I36V/T20V); conditions: cited from earlier work
# Chain of TetR (P0ACT4 with tags, fused parts or gaps T20V/D23E/I36V): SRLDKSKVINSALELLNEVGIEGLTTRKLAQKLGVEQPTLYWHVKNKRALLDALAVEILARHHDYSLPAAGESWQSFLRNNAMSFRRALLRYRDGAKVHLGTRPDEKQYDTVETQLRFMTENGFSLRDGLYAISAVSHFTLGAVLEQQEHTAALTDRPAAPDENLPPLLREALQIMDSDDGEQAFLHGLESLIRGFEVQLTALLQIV
# [8] = test system: urease activity of X47 urePtetO strains; experiment: Liquid urease activity assay; assay type: cell-based, H. pylori
# Protocol: Bacteria were grown on CBA plates with or without 50 ng/mL ATc for two successive passages. Bacteria were resuspended in cold buffer A (25 mM phosphate buffer, pH 6.8) and standardized to an OD600 of 4.0. 50 μL of standardized bacterial suspension was diluted with 50 μL of buffer B (25 mM phosphate buffer, pH 6.8, 0.2% tween-20). In 96 well plate, 25 μL of diluted bacterial suspension was diluted with 150 μL of buffer C (25 mM phosphate buffer, pH 6.8, 250 μM phenol red) and incubated for 5 min at 37° C. 75 μL of urea solution (0.5 M) was then added and the absorbance at 560 nm was measured every 72 seconds for 75 cycles using a POLARstar Omega (BGM Labtech) platereader. Activity was measured as the rate of change in absorbance over time and expressed as percent of urease activity of the wild-type parent strain. All urease activity measurements were carried out in triplicate and experiments were repeated three times.
# [9] = test system: Tet-ON mdaB::ptetR; urePtetO strains; experiment: In vivo induction of urePtetO by doxycycline, C57BL/6J infection model; design: species or system H. pylori; conditions: for dox concentration at which the strain could be re-isolated: one week of infection, C57BL/6J mice
# Protocol: Regulation of urePtetO to drive the expression of urease by dox was evaluated using a C57BL/6J infection model. Mice were orally challenged with one of several Tet-ON, mdaB::ptetR; urePtetO strains and supplemented with a range of dox concentrations that were within the tolerance of X47. Urease is known to be an essential gene required for colonization, and therefore Tet-ON urePtetO strains should not be able to colonize in the absence of the inducer. […] Infection of urePtetO strains is dependent on dox supplementation (FIG. 9F). Mice were supplemented with dox for two weeks after infection to establish successful colonization of mdaB:: ptetR4; urePtetOI. […] Infection by strain mdaB::ptetR4; urePtetOI could be maintained for at least 4 weeks with dox supplementation.
# 6-7 week old C57BL/6J female mice were orally gavaged once with 200 μL of 1×10^9 CFU/mL bacteria, that had been passaged on CBA plates containing 50 ng/mL ATc to induce expression of tetracycline responsive genes. Mice were supplemented with doxycycline in their drinking water containing 5% sucrose. Mice were sacrificed at indicated time points and stomachs were removed and homogenized in 1 mL BHI using a tissue lysing agent (Retch). Homogenates were serially diluted and plated out on H. pylori selective plates, (CBA containing 5% Horse blood, Dent, polymyxin B 2500 U/L or 0.2975 mg/L, nalidixic acid 10 mg/L and Bacitracin 100 mg/L). Colonies were counted to calculate bacteria load. Re-isolated clones were checked for tet responsive gene expression and sequenced when appropriate.
compound,measurement,setting,value
"Cc1c2c(c(O)c3c(O)cccc13)C(=O)[C@]1(O)C(=O)C(C(N)=O)=C(O)[C@@H](N(C)C)[C@@H]1C2 [ATc, Anhydrotetracycline]",ATc concentration of maximal induction relative to the minimal inhibitory concentration (MIC),H. pylori,10 fold below
same,GFP expression (observed fluorescence intensities),[1]; strains expressing TetR,induction
same,GFP expression (observed fluorescence intensities),[1]; strains expressing revTetR,repression
same,time of maximal GFP activities after the addition of ATc,[2]; ptetR2 and ptetR4 containing bacteria,16 h
same,kinetics of GFP induction,[2]; ptetR6 containing bacteria,strong but delayed induction
same,binding affinity for revTetR,revTetR,very high binding affinity
same,urease activity by diffusion of ATc from disc,urease activity,induced
same,GFP expression around ATc discs,ptetR2 and uPtetO1-GFP,halo of GFP expression is evident around each disc
same,repression of UreB expression,"[3]; constructs I, II and V of the Tet-OFF system",Incomplete repression
same,response of urePtetO to ATc,[3]; strains harbouring ptetR3,did not display response
same,abundance of the UreB subunit upon the addition of ATc,[3]; strains harbouring the revTetR repressor (Tet-OFF system),reduced below the detection limit
same,cre expression,[4],induced
same,induction of GFP expression,"[5]; ptetR2 uPtetO1, all three recipient loci",4-9 fold
same,induction of GFP expression,"[5]; ptetR4 uPtetO1, all three recipient loci",13-80 fold
same,induction of GFP expression,"[5]; ptetR6 uPtetO1, all three recipient loci",2-5 fold
same,induction of GFP expression,"[5]; uPtetO2 strains, ptetR2",1.5-3 fold
same,induction of GFP expression,"[5]; uPtetO2 strains, ptetR4",3-8 fold
same,induction of GFP expression,"[5]; uPtetO2 strains, ptetR6",3-8 fold
same,ATc concentration giving maximal GFP activities,[5]; bacteria grown in different concentrations of ATc,100 ng/mL
same,GFP activities compared with maximal induction,[5]; induction with 25 ng/ml ATc,2.4 fold lower
same,ATc concentration sufficient to induce all five urePtetO promoters,[6]; ptetR4 strains,1 ng/mL
same,ATc concentrations at which urease activity decreases,[6]; ptetR4 strains,above 25 ng/mL
same,ATc concentrations at which urease activity decreases,[6]; ptetR6 strains,above 50 ng/mL
same,ATc concentration at which urease activity is evident,"[6]; ptetR6 strains, urePtetOIII, only after 48 hr",25 ng/mL and 50 ng/mL
same,ATc concentration at which significant urease activity is detected,"[6]; ptetR6 strains, urePtetOIV",10 ng/mL
same,ATc concentration at which significant urease activity is detected,"[6]; ptetR6 strains, urePtetOV",5 ng/mL
same,expression of FliCsyn,[7],showed expression of FliCsyn
same,binding affinity for TetR,TetR,very high binding affinity
same,urease activity on addition of ATc,"[8]; strains ptetR2, urePtetOI and V, ptetR3, urePtetOIV and ptetR6, urePtetOV",only partially restored
same,urease activity on addition of ATc,"[8]; strains ptetR2, urePtetOII, ptetR3, urePtetOI, II and III",completely restored urease activity
same,urease activity on addition of ATc,[8]; the other Tet-ON strains,below 10 % of wild-type urease activity
"C[C@H]1c2cccc(O)c2C(=O)C2=C(O)[C@]3(O)C(=O)C(C(N)=O)=C(O)[C@@H](N(C)C)[C@@H]3[C@@H](O)[C@@H]21 [dox, doxycycline]",time infection could be maintained with dox supplementation,"[9]; strain mdaB::ptetR4, urePtetOI",at least 4 weeks
same,dox concentration at which the strain could be re-isolated,"[9]; strain mdaB::ptetR4, urePtetOI",0.1 to 5 µg/mL
same,dox concentration at which the strain could be re-isolated,"[9]; strain mdaB::ptetR6, urePtetOV",5 to 20 µg/mL
